Measurements published in patent US11945822B2, “Pyrazolo-triazine and/or pyrazolo-pxrimidine derivatives as selective inhibitor of cyclin dependent kinase” (QURIENT CO., LTD., priority 2018, dated 2024).

test system: RPMI-8226; test: Cellular RPMI-8226 viability assay (CellTiter-Glo, 72 hours); format: cell-based; details: Homo sapiens
Summary of the method: (§1)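 Cells plated in 96 wells and exposed to compound 72 h at 37 °C, 5% CO2, final DMSO below 0.1%, DMSO control. Viability by CellTiter-Glo luminescence, duplicate.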

Row | IC50 [nM] | SMILES
1 | 1000 to 10000 | CC(C)c1cnn2c(NCc3ccccc3-n3cc4cc(Oc5ccccc5)ccc4n3)nc(N3CCC(N)CC3)nc12 [Compound 105]
2 | < 1000 | CC(C)c1cnn2c(NCc3ccccc3-n3cc4c(n3)CCNC4=O)nc(N3CCC(N)CC3)nc12 [Compound 134]
3 | 1000 to 10000 | CC(C)c1cnn2c(NCc3ccccc3-c3cc4cccc(NC(=O)CCCN(C)C)c4[nH]3)nc(N3CCC(N)CC3)nc12 [Compound 143]

molecular target: T1, CDK5/p25 (Homo sapiens, UniProt Q00535); test: Enzymatic assay for CDK5 (FRET based LANCE Ultra kinase assay); format: biochemical; details: read-out: CDK5 enzymatic activity (IC50 range)
T1 construct: purchased Invitrogen PR8543B
T1 sequence (Q00535 whole entry): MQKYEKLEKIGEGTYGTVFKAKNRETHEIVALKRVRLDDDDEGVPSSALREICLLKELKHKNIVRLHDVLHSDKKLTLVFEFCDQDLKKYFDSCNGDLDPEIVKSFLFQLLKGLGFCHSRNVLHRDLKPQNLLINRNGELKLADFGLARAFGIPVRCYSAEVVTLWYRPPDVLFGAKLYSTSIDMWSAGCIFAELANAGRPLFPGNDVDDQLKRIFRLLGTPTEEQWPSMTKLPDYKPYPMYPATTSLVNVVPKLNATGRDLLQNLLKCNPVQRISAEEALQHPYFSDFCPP
T1 sequence (Q15078 99-307 partner limits assumed): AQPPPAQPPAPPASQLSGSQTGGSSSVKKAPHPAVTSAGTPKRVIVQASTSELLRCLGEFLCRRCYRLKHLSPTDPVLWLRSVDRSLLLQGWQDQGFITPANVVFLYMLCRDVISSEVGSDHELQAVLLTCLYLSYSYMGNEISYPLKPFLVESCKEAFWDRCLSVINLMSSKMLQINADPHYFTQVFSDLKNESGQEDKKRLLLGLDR
Summary of the method: (§2)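 Each CDK complex ([…]) phosphorylated 68 nM ULight-MBP peptide with ATP at Km for 60 min at 23° C., against 8 compound doses (4-fold dilutions). EDTA/Eu-anti-phospho-MBP detection, 60 min, then TR-FRET emission at 615 and 665 nm.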

Row | IC50 [nM] | SMILES
4 | > 1000 | CC(C)c1cnn2c(NCc3ccccc3-n3cc4cc(Oc5ccccc5)ccc4n3)nc(N3CCC(N)CC3)nc12 [Compound 105]
5 | 100 to 1000 | CC(C)c1cnn2c(NCc3ccccc3-n3cc4c(n3)CCNC4=O)nc(N3CCC(N)CC3)nc12 [Compound 134]
6 | < 100 | CC(C)c1cnn2c(NCc3ccccc3-c3cc4cccc(NC(=O)CCCN(C)C)c4[nH]3)nc(N3CCC(N)CC3)nc12 [Compound 143]

test system: MOLT-4; test: Cellular MOLT-4 viability assay (CellTiter-Glo, 72 hours); format: cell-based; details: Homo sapiens, MOLT4 viability assay
Summary of the method: as §1

Row | IC50 [nM] | SMILES
7 | 1000 to 10000 | CC(C)c1cnn2c(NCc3ccccc3-n3cc4cc(Oc5ccccc5)ccc4n3)nc(N3CCC(N)CC3)nc12 [Compound 105]

test system: H460; test: Cellular H460 viability assay (CellTiter-Glo, 72 hours); format: cell-based; details: Homo sapiens, NCI-H460
Summary of the method: as §1

Row | IC50 [nM] | SMILES
8 | 1000 to 10000 | CC(C)c1cnn2c(NCc3ccccc3-n3cc4cc(Oc5ccccc5)ccc4n3)nc(N3CCC(N)CC3)nc12 [Compound 105]
9 | 1000 to 10000 | CC(C)c1cnn2c(NCc3ccccc3-n3cc4c(n3)CCNC4=O)nc(N3CCC(N)CC3)nc12 [Compound 134]
10 | 1000 to 10000 | CC(C)c1cnn2c(NCc3ccccc3-c3cc4cccc(NC(=O)CCCN(C)C)c4[nH]3)nc(N3CCC(N)CC3)nc12 [Compound 143]

molecular target: T2, CDK1/Cyclin B (Homo sapiens, UniProt P06493); test: Enzymatic assay for CDK1 (FRET based LANCE Ultra kinase assay); format: biochemical; details: read-out: CDK1 enzymatic activity (IC50 range)
T2 construct: purchased Invitrogen PR4768C
T2 sequence (P06493 whole entry): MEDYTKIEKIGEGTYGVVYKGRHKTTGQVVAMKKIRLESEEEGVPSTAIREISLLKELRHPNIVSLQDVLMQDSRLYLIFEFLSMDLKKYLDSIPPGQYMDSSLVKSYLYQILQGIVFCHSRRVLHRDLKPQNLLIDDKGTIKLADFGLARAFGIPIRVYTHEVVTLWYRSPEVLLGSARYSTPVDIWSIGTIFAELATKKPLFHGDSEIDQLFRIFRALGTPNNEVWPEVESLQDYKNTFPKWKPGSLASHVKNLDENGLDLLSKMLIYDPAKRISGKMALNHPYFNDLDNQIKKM
T2 sequence (P14635 whole entry partner): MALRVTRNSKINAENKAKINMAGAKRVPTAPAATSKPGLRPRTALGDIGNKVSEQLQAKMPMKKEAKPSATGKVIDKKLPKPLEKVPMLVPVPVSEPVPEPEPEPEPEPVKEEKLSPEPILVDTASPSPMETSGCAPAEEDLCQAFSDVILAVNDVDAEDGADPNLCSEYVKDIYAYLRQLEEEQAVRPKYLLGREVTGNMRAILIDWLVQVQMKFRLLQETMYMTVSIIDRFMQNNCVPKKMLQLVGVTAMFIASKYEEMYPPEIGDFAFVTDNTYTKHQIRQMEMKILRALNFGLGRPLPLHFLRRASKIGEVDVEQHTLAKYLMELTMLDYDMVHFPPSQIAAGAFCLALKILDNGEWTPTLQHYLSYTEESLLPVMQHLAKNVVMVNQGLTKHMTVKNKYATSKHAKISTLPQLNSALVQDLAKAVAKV
Summary of the method: as §2

Row | IC50 [nM] | SMILES
11 | > 1000 | CC(C)c1cnn2c(NCc3ccccc3-n3cc4cc(Oc5ccccc5)ccc4n3)nc(N3CCC(N)CC3)nc12 [Compound 105]
12 | > 1000 | CC(C)c1cnn2c(NCc3ccccc3-n3cc4c(n3)CCNC4=O)nc(N3CCC(N)CC3)nc12 [Compound 134]
13 | 100 to 1000 | CC(C)c1cnn2c(NCc3ccccc3-c3cc4cccc(NC(=O)CCCN(C)C)c4[nH]3)nc(N3CCC(N)CC3)nc12 [Compound 143]

test system: MM.1S; test: Cellular MM.1S viability assay (CellTiter-Glo, 72 hours); format: cell-based; details: Homo sapiens, MM1.S
Excerpt: Human T-cell acute lymphoblastic leukemia cell line, MOLT-4 (ATCC, Cat #CRL-1582), Human multiple myeloma cell line, RPMI-8226 (Invitrogen, Cat #22400-089) and MM.1S (ATCC, Cat #CRL-2974), NSCLC (Non-small cell lung cancer) cell line H460 (ATCC, Cat #HTB-177), Human colon colorectal carcinoma cell line HCT116 (ATCC, Cat #CCL-247), Human acute monocytic leukemia cell line MV4-11 (ATCC, Cat #CRL-9591), OVCAR-3 (ATCC, Cat #HTB-161) and A2780 (ECACC, Cat #93112519) were obtained from ATCC. Cells were grown in RPMI-1640 media (Invitrogen, Cat #22400-089) supplemented with 10% FBS (Invitrogen, Cat #10099141) and 1% penicillin/streptomycin (Invitrogen, Cat #15070063) and cultured at 37° C., 5% CO2 in a humidified chamber. All cell lines were routinely tested for mycoplasma.
The effect of the CDK7 inhibitor to inhibit the growth of target cancer cells was evaluated through the 72 hours time period of viability assay. Briefly, the candidate cell line ware plated in 96 well plate at the following density of cells respectively. 1×10^4 cells/well for MOLT-4, RPMI-8226, MV4-11 and MM.1S, 5×10^3 for H460, HCT116 and OVCAR-3 and IX 10^3 for A2780. After 24 hours, the cells were treated with various concentrations of the compound (ranging from 0.0015 uM to 10 uM). DMSO solvent without compound served as a control and final DMSO concentration less than 0.1%. After 72 hours of incubation at 37° C., 5% CO2 incubator, cells were analyzed for the viability using the CellTiter-Glo Luminescent Cell Viability Assay (Promega, Cat #G7570). All viability assays were performed in duplicate and Luminescence was read using an Envision (Perkin Elmer, USA). Data was analyzed using XLfit software.

Row | IC50 [nM] | SMILES
14 | ≤ 1000 | CC(C)c1cnn2c(NCc3ccccc3-n3cc4cc(Oc5ccccc5)ccc4n3)nc(N3CCC(N)CC3)nc12 [Compound 105]
15 | 1000 to 10000 | CC(C)c1cnn2c(NCc3ccccc3-n3cc4c(n3)CCNC4=O)nc(N3CCC(N)CC3)nc12 [Compound 134]
16 | ≤ 1000 | CC(C)c1cnn2c(NCc3ccccc3-c3cc4cccc(NC(=O)CCCN(C)C)c4[nH]3)nc(N3CCC(N)CC3)nc12 [Compound 143]

molecular target: T3, CDK2/Cyclin A (Homo sapiens, UniProt P24941); test: Enzymatic assay for CDK2 (FRET based LANCE Ultra kinase assay); format: biochemical; details: read-out: CDK2 enzymatic activity (IC50 range)
T3 construct: purchased Invitrogen PV6290
Summary of the method: as §2

Row | IC50 [nM] | SMILES
17 | > 1000 | CC(C)c1cnn2c(NCc3ccccc3-n3cc4cc(Oc5ccccc5)ccc4n3)nc(N3CCC(N)CC3)nc12 [Compound 105]
18 | 100 to 1000 | CC(C)c1cnn2c(NCc3ccccc3-n3cc4c(n3)CCNC4=O)nc(N3CCC(N)CC3)nc12 [Compound 134]
19 | 100 to 1000 | CC(C)c1cnn2c(NCc3ccccc3-c3cc4cccc(NC(=O)CCCN(C)C)c4[nH]3)nc(N3CCC(N)CC3)nc12 [Compound 143]

molecular target: T4, CDK7/Cyclin H/MNAT1 (Homo sapiens, UniProt P50613); test: Enzymatic assay for CDK7 (FRET based LANCE Ultra kinase assay); format: biochemical; details: CDK7 over CDK1
T4 construct: purchased Invitrogen PR6749B
T4 sequence (P50613 whole entry): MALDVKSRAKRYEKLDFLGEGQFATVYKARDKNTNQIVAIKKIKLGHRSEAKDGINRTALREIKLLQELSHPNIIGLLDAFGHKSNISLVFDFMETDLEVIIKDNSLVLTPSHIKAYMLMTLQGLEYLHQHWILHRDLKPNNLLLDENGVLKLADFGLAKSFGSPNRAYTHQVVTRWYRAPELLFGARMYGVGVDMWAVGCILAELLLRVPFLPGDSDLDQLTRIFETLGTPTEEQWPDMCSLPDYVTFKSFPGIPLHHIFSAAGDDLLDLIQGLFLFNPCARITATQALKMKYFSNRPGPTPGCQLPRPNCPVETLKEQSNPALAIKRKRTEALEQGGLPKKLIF
T4 sequence (P51946 whole entry partner): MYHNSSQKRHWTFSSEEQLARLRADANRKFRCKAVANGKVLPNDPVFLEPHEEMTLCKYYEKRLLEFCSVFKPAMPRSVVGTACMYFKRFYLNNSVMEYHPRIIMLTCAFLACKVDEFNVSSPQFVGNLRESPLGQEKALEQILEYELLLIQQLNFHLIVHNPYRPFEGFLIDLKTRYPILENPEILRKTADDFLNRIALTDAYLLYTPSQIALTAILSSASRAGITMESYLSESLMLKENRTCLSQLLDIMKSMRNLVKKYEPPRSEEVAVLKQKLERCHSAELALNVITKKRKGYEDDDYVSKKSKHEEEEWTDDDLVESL
T4 sequence (P51948 whole entry partner): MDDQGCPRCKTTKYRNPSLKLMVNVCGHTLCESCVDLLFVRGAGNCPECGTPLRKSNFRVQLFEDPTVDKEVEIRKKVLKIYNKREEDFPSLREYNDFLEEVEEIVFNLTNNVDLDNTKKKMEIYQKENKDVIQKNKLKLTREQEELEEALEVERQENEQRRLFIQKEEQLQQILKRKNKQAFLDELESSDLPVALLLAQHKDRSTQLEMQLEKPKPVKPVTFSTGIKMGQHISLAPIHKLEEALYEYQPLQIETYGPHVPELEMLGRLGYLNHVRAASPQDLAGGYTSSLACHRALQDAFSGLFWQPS
Summary of the method: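 LANCE Ultra TR-FRET kinase assay using a ULight-labeled peptide substrate and a Eu-labeled anti-phospho antibody, with ATP at its Km. Purified CDK/cyclin complex was added to compound after brief centrifugation.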

Row | CDK1/CDK7: Selectivity of CDK7 inhibition over CDK1 inhibition | SMILES
20 | A (A=greater than 200 fold) | CC(C)c1cnn2c(NCc3ccccc3-n3cc4cc(Oc5ccccc5)ccc4n3)nc(N3CCC(N)CC3)nc12 [Compound 105]
21 | A (A=greater than 200 fold) | CC(C)c1cnn2c(NCc3ccccc3-n3cc4c(n3)CCNC4=O)nc(N3CCC(N)CC3)nc12 [Compound 134]

Row | SMILES | CDK1/CDK7: Selectivity of CDK7 inhibition over CDK1 inhibition
22 | CC(C)c1cnn2c(NCc3ccccc3-c3cc4cccc(NC(=O)CCCN(C)C)c4[nH]3)nc(N3CCC(N)CC3)nc12 [Compound 143] | B (B=less than 200 fold, but greater than 20 fold)

same assay, conditions: CDK7 over CDK2

Row | SMILES | CDK2/CDK7: Selectivity of CDK7 inhibition over CDK2 inhibition
23 | CC(C)c1cnn2c(NCc3ccccc3-n3cc4cc(Oc5ccccc5)ccc4n3)nc(N3CCC(N)CC3)nc12 [Compound 105] | B (B=less than 200 fold, but greater than 20 fold)
24 | CC(C)c1cnn2c(NCc3ccccc3-n3cc4c(n3)CCNC4=O)nc(N3CCC(N)CC3)nc12 [Compound 134] | B (B=less than 200 fold, but greater than 20 fold)
25 | CC(C)c1cnn2c(NCc3ccccc3-c3cc4cccc(NC(=O)CCCN(C)C)c4[nH]3)nc(N3CCC(N)CC3)nc12 [Compound 143] | B (B=less than 200 fold, but greater than 20 fold)

same assay, conditions: CDK7 over CDK5

Row | SMILES | CDK5/CDK7: Selectivity of CDK7 inhibition over CDK5 inhibition
26 | CC(C)c1cnn2c(NCc3ccccc3-n3cc4cc(Oc5ccccc5)ccc4n3)nc(N3CCC(N)CC3)nc12 [Compound 105] | B (B=less than 200 fold, but greater than 20 fold)
27 | CC(C)c1cnn2c(NCc3ccccc3-n3cc4c(n3)CCNC4=O)nc(N3CCC(N)CC3)nc12 [Compound 134] | B (B=less than 200 fold, but greater than 20 fold)
28 | CC(C)c1cnn2c(NCc3ccccc3-c3cc4cccc(NC(=O)CCCN(C)C)c4[nH]3)nc(N3CCC(N)CC3)nc12 [Compound 143] | C (C=less than 20 fold)

same assay, conditions: read-out: CDK7 enzymatic activity (IC50 range)

Row | IC50 [nM] | SMILES
29 | < 100 | CC(C)c1cnn2c(NCc3ccccc3-n3cc4cc(Oc5ccccc5)ccc4n3)nc(N3CCC(N)CC3)nc12 [Compound 105]
30 | < 100 | CC(C)c1cnn2c(NCc3ccccc3-n3cc4c(n3)CCNC4=O)nc(N3CCC(N)CC3)nc12 [Compound 134]
31 | < 100 | CC(C)c1cnn2c(NCc3ccccc3-c3cc4cccc(NC(=O)CCCN(C)C)c4[nH]3)nc(N3CCC(N)CC3)nc12 [Compound 143]

test system: HCT116; test: Cellular HCT116 viability assay (CellTiter-Glo, 72 hours); format: cell-based; details: Homo sapiens, HCT-116
Summary of the method: as §1

Row | IC50 [nM] | SMILES
32 | < 1000 | CC(C)c1cnn2c(NCc3ccccc3-n3cc4c(n3)CCNC4=O)nc(N3CCC(N)CC3)nc12 [Compound 134]

test system: MV4-11; test: Cellular MV4-11 viability assay (CellTiter-Glo, 72 hours); format: cell-based; details: Homo sapiens
Summary of the method: as §1

Row | IC50 [nM] | SMILES
33 | < 1000 | CC(C)c1cnn2c(NCc3ccccc3-n3cc4c(n3)CCNC4=O)nc(N3CCC(N)CC3)nc12 [Compound 134]
34 | < 1000 | CC(C)c1cnn2c(NCc3ccccc3-c3cc4cccc(NC(=O)CCCN(C)C)c4[nH]3)nc(N3CCC(N)CC3)nc12 [Compound 143]
